# Laboratory results taken from patent US10206907B2, “Compounds useful for the treatment of degenerative and inflammatory diseases” (GALAPAGOS NV, priority 2008, dated 2019).
# pEC50, pIC50: −log10 of the molar value.
# Legend:
# [1] = tested on: JAK-STAT signalling in HeLa cells; test: JAK-STAT signalling assay (OSM-triggered pSTAT1(2)-luciferase reporter in HeLa cells); assay type: cell-based; settings: Homo sapiens; HeLa cells, OSM-triggered pSTAT1(2)-luciferase reporter; read-out: STAT signalling EC50
# In short: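 HeLa cells transiently transfected with pSTAT1(2)-luciferase reporter plus LacZ internal control, incubated overnight at 37 °C, 10% CO2, then OSM-stimulated with compound. Luciferase read by Steadylite luminescence and normalised to β-galactosidase (ONPG); percent inhibition from controls, EC50 from dose-response.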
# [2] = target: Recombinant human JAK3 catalytic domain (Homo sapiens (Human), UniProt P52333); test: JAK3 inhibition assay; assay type: biochemical; settings: semi-quantitative score
# Experimental: Plates were washed 6 times with 300 μL per well of a 75 mM phosphoric acid solution and the bottom of the plates was sealed. 40 μL/well of Microscint-20 was added, the top of the plates was sealed and readout was performed using the Topcount (Perkin Elmer). Kinase activity was calculated by subtracting counts per minute (cpm) obtained in the presence of a positive control inhibitor (10 μM staurosporine) from cpm obtained in the presence of vehicle. The ability of a test compound to inhibit this activity was determined as: Percentage inhibition=((cpm determined for sample with test compound present−cpm determined for sample with positive control inhibitor) divided by (cpm determined in the presence of vehicle−cpm determined for sample with positive control inhibitor))*100%.
# Dose dilution series were prepared for the compounds enabling the testing of dose-response effects in the JAK3 assay and the calculation of the IC50 for each compound.
# [3] = target: Recombinant human JAK2 catalytic domain (Homo sapiens (Human), UniProt O60674); test: JAK2 inhibition assay; assay type: biochemical; settings: semi-quantitative score
# In short: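 Radiometric kinase reactions ran for 90 min at 30 °C and were stopped with phosphoric acid, then washed and counted by scintillation. Percent inhibition was set relative to vehicle and to 10 μM staurosporine background. IC50 was derived from dose-dilution series.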
# [4] = Microsomal stability, rat liver microsomes; assay type: in vitro ADME; settings: percentage of compound remaining after 60 minutes, 3 μM compound
# In short: (§1)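 Compound was incubated with liver microsomes plus an NADP+/glucose-6-phosphate/G6PDH/MgCl2 regenerating system at 37°C for 1 h. Reactions were stopped 1:1 with MeOH or ACN and analysed by LCMS.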
# [5] = Microsomal stability, human liver microsomes; assay type: in vitro ADME; settings: percentage of compound remaining after 60 minutes, 3 μM compound
# In short: as §1
# MMP13 in SW1353 cells = test: OSM/IL-1β signaling assay (MMP13 levels in SW1353 cells); assay type: cell-based; settings: Homo sapiens; SW1353 cells, OSM and IL-1β triggered, MMP13 levels 48 hours after triggering; read-out: MMP13 EC50;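 further: secreted MMP13 captured by antibody, activated with APMA and its activity read by fluorescence, inhibition scaled between vehicle-treated triggered wells (0%) and untriggered wells (100%)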
# Experimental: The cells were seeded in 96 well plates at 15,000 cells/well in a volume of 120 μL DMEM (Invitrogen) containing 10% (v/v) FBS and 1% penicillin/streptomycin (InVitrogen) incubated at 37° C. […] MMP13 activity was measured using an antibody capture activity assay. […] Next the wells were washed twice with PBS+0.05% Tween followed by MMP13 activation by addition of 35 μL of a 1.5 mM 4-Aminophenylmercuric acetate (APMA) (Sigma, A9563) solution and incubation at 37° C. for 1 hour. […] Percentage inhibition=((fluorescence determined in the presence of vehicle−fluorescence determined for sample with test compound present) divided by (fluorescence determined in the presence of vehicle−fluorescence determined for sample without trigger))*100%.
# [6] = target: Recombinant human JAK1 catalytic domain (Homo sapiens (Human), UniProt P23458); test: JAK1 inhibition assay; assay type: biochemical; settings: semi-quantitative score
# In short: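 Radiometric assay read by scintillation counting after phosphoric-acid washes. Percent inhibition calculated from cpm relative to vehicle and 10 μM staurosporine control. IC50 derived from compound dose-dilution series.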
# [7] = Caco2 permeability (bi-directional); assay type: in vitro ADME, human; settings: human, pH 7.4; for Papp A→B at 1 h, 10 µM: Caco-2, apical to basolateral, read-out: Papp (A2B); for efflux ratio at 1 h, 10 µM: Caco-2, ratio of PappB>A/PappA>B
# Experimental: Bi-directional Caco-2 assays were performed as described below.
# 2×10^5 cells/well were seeded in plating medium consisting of DMEM+GlutaMAXI+1% NEAA+10% FBS (FetalClone II)+1% Pen/Strep. The medium was changed every 2-3 days.
# 50 μM Lucifer Yellow (Sigma) was added to the donor buffer in all wells to assess integrity of the cell layers by monitoring Lucifer Yellow permeation. As Lucifer Yellow (LY) cannot freely permeate lipophilic barriers, a high degree of LY transport indicates poor integrity of the cell layer.
# After a 1 hour incubation at 37° C. while shaking at an orbital shaker at 150 rpm, 70 μL aliquots were taken from both apical (A) and basal (B) chambers and added to 100 μL1 50:50 acetonitrile:water solution containing analytical internal standard (0.5 μM carbamazepine) in a 96 well plate.
# Concentrations of compound in the samples were measured by high performance liquid-chromatography/mass spectroscopy (LC-MS/MS).
# The Efflux ratios, as an indication of active efflux from the apical cell surface, were calculated using the ratio of PappB>A/PappA>B.
# The following assay acceptance criteria were used:
# Lucifer yellow permeability: ≤100 nm/s
# Chain of Recombinant human JAK3 catalytic domain (P52333 781-1124): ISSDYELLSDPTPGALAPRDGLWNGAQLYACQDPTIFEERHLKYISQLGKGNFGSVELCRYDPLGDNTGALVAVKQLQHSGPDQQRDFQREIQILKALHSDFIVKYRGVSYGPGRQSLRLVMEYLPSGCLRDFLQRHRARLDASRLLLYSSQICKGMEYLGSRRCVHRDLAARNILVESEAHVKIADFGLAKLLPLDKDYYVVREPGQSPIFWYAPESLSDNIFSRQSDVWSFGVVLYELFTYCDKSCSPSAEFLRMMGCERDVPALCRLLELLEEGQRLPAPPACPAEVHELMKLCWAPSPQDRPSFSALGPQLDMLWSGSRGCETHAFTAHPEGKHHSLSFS
# Chain of Recombinant human JAK1 catalytic domain (P23458 850-1154): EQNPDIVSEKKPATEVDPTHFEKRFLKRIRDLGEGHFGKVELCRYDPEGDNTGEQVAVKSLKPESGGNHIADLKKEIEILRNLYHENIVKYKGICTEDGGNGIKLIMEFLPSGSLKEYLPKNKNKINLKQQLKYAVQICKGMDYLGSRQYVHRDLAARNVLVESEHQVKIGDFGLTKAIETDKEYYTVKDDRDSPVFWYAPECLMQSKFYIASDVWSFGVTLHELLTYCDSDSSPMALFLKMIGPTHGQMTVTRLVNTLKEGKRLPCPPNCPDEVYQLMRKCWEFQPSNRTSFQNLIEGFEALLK
# Chain of Recombinant human JAK2 catalytic domain (O60674 808-1132): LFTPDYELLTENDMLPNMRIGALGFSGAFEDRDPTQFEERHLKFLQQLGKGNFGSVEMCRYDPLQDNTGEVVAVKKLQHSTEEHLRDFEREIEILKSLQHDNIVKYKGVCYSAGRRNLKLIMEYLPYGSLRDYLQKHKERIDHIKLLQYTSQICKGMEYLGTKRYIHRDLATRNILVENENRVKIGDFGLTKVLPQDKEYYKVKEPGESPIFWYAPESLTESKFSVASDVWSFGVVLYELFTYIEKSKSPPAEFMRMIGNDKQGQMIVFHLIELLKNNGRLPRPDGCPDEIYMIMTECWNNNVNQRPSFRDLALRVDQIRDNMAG
structure (smiles),measurement,setting,value
"O=C(c1ccccc1)c1ccc(-c2cccc3nc(NC(=O)C4CC4)nn23)cc1 [Compound 10, N-(5-(4-benzoylphenyl)-[1,2,4]triazolo[1,5-a]pyridin-2-yl)cyclopropanecarboxamide]",pEC50,[1],< 6.00
same,pIC50,[2],< 6.00
same,pIC50,[3],6.30 to 7.00
same,Microsomal Stability Rat (%),[4],** (** 26-50)
same,Microsomal Stability Human (%),[5],**** (**** 76-100)
same,pEC50,MMP13 in SW1353 cells,< 6.00
same,pIC50,[6],> 7.00
"O=C(Cc1ccc(-c2cccc3nc(NC(=O)C4CC4)nn23)cc1)Nc1cccnc1 [Compound 316, Cyclopropanecarboxylic acid {5-[4-(pyridin-3-ylcarbamoylmethyl)-phenyl)-[1,2,4]triazolo[1,5-a]pyridin-2-yl}-amide]",pEC50,[1],< 6.00
same,pIC50,[3],6.30 to 7.00
same,Microsomal Stability Rat (%),[4],**** (**** 76-100)
same,"Papp A→B at 1 h, 10 µM",[7],0.3 ×10⁻⁶ cm/s
same,"efflux ratio at 1 h, 10 µM",[7],104
same,Microsomal Stability Human (%),[5],*** (*** 51-75)
same,pEC50,MMP13 in SW1353 cells,< 6.00
same,pIC50,[6],> 7.00
"CC(Oc1ccc(-c2cccc3nc(NC(=O)C4CC4)nn23)cc1)c1ccccn1 (stereo not shown) [Compound 189, N-(5-(4-(1-(pyridin-2-yl)ethoxy)phenyl)-[1,2,4]triazolo[1,5-a]pyridin-2-yl)cyclopropanecarboxamide]",pEC50,[1],6.30 to 7.00
same,pIC50,[2],6.00 to 6.30
same,Microsomal Stability Rat (%),[4],** (** 26-50)
same,Microsomal Stability Human (%),[5],** (** 26-50)
same,pEC50,MMP13 in SW1353 cells,< 6.00
same,pIC50,[6],> 7.00
O=C(Nc1nc2cccc(-c3ccc(OCCn4cccn4)cc3)n2n1)C1CC1 [Compound 98],pEC50,[1],< 6.00
same,pIC50,[2],< 6.00
same,pIC50,[3],6.30 to 7.00
same,Microsomal Stability Rat (%),[4],** (** 26-50)
same,Microsomal Stability Human (%),[5],** (** 26-50)
same,pEC50,MMP13 in SW1353 cells,< 6.00
same,pIC50,[6],> 7.00
"N#CC1CCN(C(=O)c2ccc(-c3cccc4nc(NC(=O)C5CC5)nn34)cc2)CC1 [Compound 210, Cyclopropanecarboxylic acid {5-[4-(4-cyano-piperidine-1-carbonyl)-phenyl]-[1,2,4]triazolo[1,5-a]pyridin-2-yl)-amide]",pEC50,[1],< 6.00
same,pIC50,[3],6.30 to 7.00
same,Microsomal Stability Rat (%),[4],**** (**** 76-100)
same,"Papp A→B at 1 h, 10 µM",[7],0.45 ×10⁻⁶ cm/s
same,"efflux ratio at 1 h, 10 µM",[7],76.2
same,Microsomal Stability Human (%),[5],**** (**** 76-100)
same,pEC50,MMP13 in SW1353 cells,6.30 to 9.00
same,pIC50,[6],> 7.00
"CN1CCN(C(=O)c2ccc(-c3cccc4nc(NC(=O)C5CC5)nn34)cc2)CC1 [Compound 71, N-(5-(4-(4-methylpiperazine-1-carbonyl)phenyl)-[1,2,4]triazolo[1,5-a]pyridin-2-yl)cyclopropanecarboxamide]",pEC50,[1],< 6.00
same,pIC50,[2],< 6.00
same,Microsomal Stability Rat (%),[4],**** (**** 76-100)
same,Microsomal Stability Human (%),[5],* (* 0-25)
same,pEC50,MMP13 in SW1353 cells,< 6.00
same,pIC50,[6],> 7.00
"O=C(Nc1nc2cccc(-c3ccc(N4CCCCC4)nc3)n2n1)C1CC1 [Compound 3, N-(5-(6-(piperidin-1-yl)pyridin-3-yl)-[1,2,4]triazolo[1,5-a]pyridin-2-yl)cyclopropanecarboxamide]",pIC50,[2],< 6.00
same,pIC50,[3],< 6.00
same,pIC50,[6],6.30 to 7.00
"Cn1cnc(COc2ccc(-c3cccc4nc(NC(=O)C5CC5)nn34)cc2)n1 [Compound 199, Cyclopropanecarboxylic acid {5-[4-(1-methyl-1H-[1,2,4]triazol-3-ylmethoxy)-phenyl]-[1,2,4]triazolo[1,5-a]pyridin-2-yl}-amide]",pEC50,[1],< 6.00
same,pIC50,[3],6.30 to 7.00
same,Microsomal Stability Rat (%),[4],**** (**** 76-100)
same,"Papp A→B at 1 h, 10 µM",[7],4.53 ×10⁻⁶ cm/s
same,"efflux ratio at 1 h, 10 µM",[7],8.83
same,Microsomal Stability Human (%),[5],**** (**** 76-100)
same,pEC50,MMP13 in SW1353 cells,< 6.00
same,pIC50,[6],> 7.00
"CC(=O)Nc1ccc(COc2ccc(-c3cccc4nc(NC(=O)C5CC5)nn34)cc2)cc1 [Compound 92, N-(5-(4-(4-acetamidobenzyloxy)phenyl)-[1,2,4]triazolo[1,5-a]pyridin-2-yl)cyclopropanecarboxamide]",pIC50,[2],6.00 to 6.30
same,pIC50,[3],6.30 to 7.00
same,Microsomal Stability Rat (%),[4],* (* 0-25)
same,Microsomal Stability Human (%),[5],** (** 26-50)
same,pEC50,MMP13 in SW1353 cells,< 6.00
same,pIC50,[6],> 7.00
"O=C(Nc1nc2cccc(-c3ccc(CN4CCCC(F)C4)cc3)n2n1)C1CC1 (stereo not shown) [Compound 280, Cyclopropanecarboxylic acid {5-[4-(3-fluoro-piperidin-1-ylmethyl)-phenyl]-[1,2,4]triazolo[1,5-a]pyridin-2-yl}-amide]",pEC50,[1],6.00 to 6.30
same,Microsomal Stability Rat (%),[4],** (** 26-50)
same,"Papp A→B at 1 h, 10 µM",[7],11.4 ×10⁻⁶ cm/s
same,"efflux ratio at 1 h, 10 µM",[7],1.14
same,Microsomal Stability Human (%),[5],*** (*** 51-75)
same,pEC50,MMP13 in SW1353 cells,< 6.00
same,pIC50,[6],> 7.00
"O=C(Nc1nc2cccc(-c3ccc(C(=O)N4CCC(O)CC4)cc3)n2n1)C1CC1 [Compound 209, Cyclopropanecarboxylic acid {5-[4-(4-hydroxy-piperidine-1-carbonyl)-phenyl]-[1,2,4]triazolo[1,5-a]pyridin-2-yl}-amide]",pEC50,[1],< 6.00
same,pIC50,[3],6.30 to 7.00
same,Microsomal Stability Rat (%),[4],**** (**** 76-100)
same,"Papp A→B at 1 h, 10 µM",[7],0.5 ×10⁻⁶ cm/s
same,"efflux ratio at 1 h, 10 µM",[7],36
same,Microsomal Stability Human (%),[5],**** (**** 76-100)
same,pEC50,MMP13 in SW1353 cells,< 6.00
same,pIC50,[6],> 7.00
"CC1(C)CCCN(C(=O)c2ccc(-c3cccc4nc(NC(=O)C5CC5)nn34)cc2)C1 [Compound 175, N-(5-(4-(3,3-dimethylpiperidine-1-carbonyl)phenyl)-[1,2,4]triazolo[1,5-a]pyridin-2-yl)cyclopropanecarboxamide]",pEC50,[1],6.00 to 6.30
same,Microsomal Stability Rat (%),[4],* (* 0-25)
same,"Papp A→B at 1 h, 10 µM",[7],6.95 ×10⁻⁶ cm/s
same,"efflux ratio at 1 h, 10 µM",[7],2
same,Microsomal Stability Human (%),[5],* (* 0-25)
same,pEC50,MMP13 in SW1353 cells,6.30 to 9.00
same,pIC50,[6],> 7.00
"N#Cc1ccc(COC2CN(C(=O)c3ccc(-c4cccc5nc(NC(=O)C6CC6)nn45)cc3)C2)cc1 [Compound 325, Cyclopropanecarboxylic acid (5-{4-[3-(4-cyano-benzyloxy)-azetidine-1-carbonyl]-phenyl}-[1,2,4]triazolo[1,5-a]pyridin-2-yl)-amide]",pEC50,[1],6.00 to 6.30
same,pIC50,[3],6.30 to 7.00
same,Microsomal Stability Rat (%),[4],*** (*** 51-75)
same,"Papp A→B at 1 h, 10 µM",[7],3.2 ×10⁻⁶ cm/s
same,Microsomal Stability Human (%),[5],*** (*** 51-75)
same,pEC50,MMP13 in SW1353 cells,6.00 to 6.30
same,pIC50,[6],> 7.00
